One compound from patent US5106871A, “Anti-ulcer agent comprising chalcone derivative as effective ingredient and novel chalcone derivative” (Tsumura & Co., priority 1986, dated 1992) can be followed below.

Assay [1] relates to gastric mucous membrane. The assay is described as follows: 100% ethanol-induced gastric mucous membrane damage in rats (Experimental Example 1). It counts as in vivo, male rats of the Wister line. The procedure:
After 1 hour from the administration of 100% ethanol, the abdominal operation was carried out, and the length of the damaged region on the gastric mucous membrane was measured as the mucous membrane damage coefficient and compared with the value obtained in the control group. Note, a 0.5% solution of CMC not containing a compound of formula I was intraabdominally or orally administered in the control group.

For assay [2], the system named is gastric mucous membrane. Description: 0.6N hydrochloric acid-induced gastric mucous membrane damage in rats (Experimental Example 2). It counts as in vivo, male rats of the Wister line. The following applies: Table 7, 100 mg/kg i.p. Here is the method:
A suspension of a compound of formula I in a […] of CMC (carboxymethyl cellulose) was intraabdominally administered in male rats of the Wister line (each group consisting of 10 rats) having a body weight of 180 to 200 g, which had been made to fast for 24 hours, and after 30 minutes, 1 ml of 0.6N hydrochloric acid was orally administered. After 1 hour from the administration of 0.6N hydrochloric acid, the abdominal operation was carried out, and the length of the damage on the gastric mucous membrane was measured as the mucous membrane damage coefficient and compared with the value obtained in the control group in the control group. Note, a 0.5% solution of CMC was intraabdominally administered. Data of the inhibition ratio calculated according to the following formula is shown in Tables 5 through 7: [formula] wherein A stands for the value obtained in the control group and B stands for the value obtained in the group in which the compound of formula I had been administered.

Molecules are shown by their SMILES.

Take `COc1ccc(CCC(=O)c2c(OC)cc(OC)c(CCC(C)C)c2OCC(=O)O)cc1` [Specific Example 35, 1-(2-carboxymethoxy-4,6-dimethoxy-3-isopentylphenyl)-3-(4-methoxyphenyl)-1-propanone]: the inhibition in vivo at 35 mg/kg in assay [1] (Rattus norvegicus, ip, 1 h, Table 1, 35 mg/kg i.p., vs control, read-out: Inhibition Ratio) was 67.2%. In addition, the inhibition in vivo at 100 mg/kg in assay [1] (Rattus norvegicus, po, 1 h, Table 2, 100 mg/kg p.o., vs control, read-out: Inhibition Ratio) amounted to 81.2%. Further, the “Mucous Membrane Damage Coefficient” value in assay [1] (Table 1, 35 mg/kg i.p., control 102.6) is given as 33.7 mm; in assay [1] (Table 2, 100 mg/kg p.o., control 87.7), 16.5 mm; in assay [2] (control 133.8), 65.8 mm. Moreover, the “Inhibition Ratio” value in assay [2] (vs control) is on record as 50.8%.
